Data published in ChEMBL document CHEMBL6103573, “Discovery of novel thienopyridine indole derivatives as inhibitors of tubulin polymerization targeting the colchicine-binding site with potent anticancer activities” (Eur J Med Chem, 2025).
Calls of active or inactive are those of the source. The calls are words filed in the database; no cut-off is given here.

Assays:
SGC-7901 = assay: Antiproliferative activity against human SGC-7901 cells assessed as inhibition of cell proliferation incubated for 48 hrs by MTT assay; type: functional, cell-based; conditions: SGC-7901, 48 h
Huh-7 = assay: Antiproliferative activity against human Huh-7 cells assessed as inhibition of cell proliferation incubated for 48 hrs by MTT assay; type: functional, cell-based; conditions: Huh-7, 48 h
NCI-H1975 = assay: Antiproliferative activity against human NCI-H1975 cells assessed as inhibition of cell proliferation incubated for 48 hrs by MTT assay; type: functional, cell-based; conditions: NCI-H1975, 48 h
MGC-803 [1] = assay: Antiproliferative activity against human MGC-803 cells assessed as cell viability at 1 to 2 nmol/L incubated for 48 hrs by MTT assay (reference value: 92 %); type: functional; conditions: dose 1-2 nmol/L, at 1 to 2 nM
MGC-803 [2] = assay: Antiproliferative activity against human MGC-803 cells assessed as survival rate at 2 nmol/L measured after 48 hrs by MTT assay relative to control; type: functional; conditions: read-out: Survival
HGC-27 [3] = assay: Antiproliferative activity against human HGC-27 cells assessed as reduction in cell viability at 0.25 to 2.0 nmol/L by MTT assay; type: functional, cell-based; conditions: dose 0.25-2 nmol/L, time 6-48 hrs
Tubulin (Homo sapiens) [4] = molecular target: T1, Tubulin (Homo sapiens) (UniProt P68371+Q9H4B7+P0DPH7+P68366+Q13509+Q71U36+P04350+Q3ZCM7+P07437+P68363+Q9BQE3+Q6PEY2+Q13885+Q9BVA1+Q9BUF5); assay: Disruption of microtubule network in human MGC-803 cells assessed as irregular cellular morphology at 0.25 to 2.0 nmol/L incubated for 24 hrs by DAPI staining based fluorescence microscopic analysis; type: cell-based; conditions: dose 0.25-2 nmol/L
Tubulin (Homo sapiens) [5] = molecular target: T1, Tubulin (Homo sapiens); assay: Disruption of microtubule network in human MGC-803 cells assessed as reduction in filamentous microtubule structure formation at 0.25 to 2.0 nmol/L incubated for 24 hrs by DAPI staining based fluorescence microscopic analysis; type: cell-based; conditions: dose 0.25-2 nmol/L
Tubulin (Homo sapiens) [6] = molecular target: T1, Tubulin (Homo sapiens); assay: Disruption of microtubule network in human HGC-27 cells assessed as appearance of multinucleation at 0.25 to 2.0 nmol/L incubated for 24 hrs by DAPI staining based fluorescence microscopic analysis; type: cell-based; conditions: dose 0.25-2 nmol/L
MGC-803 [7] = assay: Antiproliferative activity against human MGC-803 cells by MTT assay; type: functional, cell-based; conditions: dose 0.25-2 nmol/L
MGC-803 [8] = assay: Inhibition of colony formation in human MGC-803 cells at 0.5 nmol/L incubated for 7 days by crystal violet staining based colony formation assay relative to control; type: functional; conditions: MGC-803, 168 h, time 7 day
MGC-803 [9] = assay: Induction of apoptosis in human MGC-803 cells assessed as cell contraction at 0.25 to 2.0 nmol/L incubated for 48 hrs by bright field microscopic analysis; type: functional, cell-based; conditions: dose 0.25-2 nmol/L
HGC-27 [10] = assay: Induction of apoptosis in human HGC-27 cells assessed as increase in dead to live cells ratio at 0.25 to 2.0 nmol/L incubated for 48 hrs by Calcein-AM/PI staining based analysis; type: functional, cell-based; conditions: dose 0.25-2 nmol/L
MGC-803 [11] = assay: Induction of apoptosis in human MGC-803 cells assessed as downregulation of Bcl-2 expression incubated for 48 hrs by Western blotting analysis; type: functional, cell-based; conditions: dose 0.25-2 nmol/L
HGC-27 [12] = assay: Induction of apoptosis in human HGC-27 cells assessed as increase in cleaved Caspase-3 expression at 0.25 to 2.0 nmol/L incubated for 48 hrs by Western blotting analysis; type: functional, cell-based; conditions: dose 0.25-2 nmol/L
MGC-803 [13] = assay: Induction of apoptosis in human MGC-803 cells assessed as increase in cleaved PARP expression at 0.25 to 2.0 nmol/L incubated for 48 hrs by Western blotting analysis; type: functional, cell-based; conditions: dose 0.25-2 nmol/L
MGC-803 [14] = assay: Induction of apoptosis in human MGC-803 cells assessed as late apoptotic cells at 0.25 nmol/L incubated for 48 hrs by Annexin V-FITC/propidium iodide staining based flow cytometry analysis (reference value: 2.22 %); type: functional
MGC-803 [15] = assay: Induction of apoptosis in human MGC-803 cells assessed as early apoptotic cells at 0.5 nmol/L incubated for 48 hrs by Annexin V-FITC/propidium iodide staining based flow cytometry analysis (reference value: 0.83 %); type: functional
MGC-803 [16] = assay: Induction of apoptosis in human MGC-803 cells assessed as late apoptotic cells at 2.0 nmol/L incubated for 48 hrs by Annexin V-FITC/propidium iodide staining based flow cytometry analysis (reference value: 2.22 %); type: functional
HGC-27 [17] = assay: Induction of apoptosis in human HGC-27 cells assessed as early apoptotic cells at 0.5 nmol/L incubated for 48 hrs by Annexin V-FITC/propidium iodide staining based flow cytometry analysis (reference value: 2.04 %); type: functional
HGC-27 [18] = assay: Induction of apoptosis in human HGC-27 cells assessed as late apoptotic cells at 1.0 nmol/L incubated for 48 hrs by Annexin V-FITC/propidium iodide staining based flow cytometry analysis (reference value: 3.70 %); type: functional
HGC-27 [19] = assay: Induction of apoptosis in human HGC-27 cells assessed as early apoptotic cells at 2.0 nmol/L incubated for 48 hrs by Annexin V-FITC/propidium iodide staining based flow cytometry analysis (reference value: 2.04 %); type: functional
HGC-27 [20] = assay: Induction of apoptosis in human HGC-27 cells assessed as late apoptotic cells at 2.0 nmol/L incubated for 48 hrs by Annexin V-FITC/propidium iodide staining based flow cytometry analysis (reference value: 3.70 %); type: functional
HGC-27 [21] = assay: Induction of apoptosis in human HGC-27 cells incubated for 48 hrs by Annexin V-FITC/propidium iodide staining based flow cytometry analysis; type: functional, cell-based; conditions: dose 0.25-2 nmol/L
HUVEC [22] = assay: Anti-angiogenesis activity in HUVEC cells assessed as reduction in cell viability incubated from 12 to 48 hrs by MTT assay; type: functional, cell-based; conditions: Homo sapiens, dose < 2.0 nmol/L, time 12-48 hrs
HUVEC [23] = assay: Anti-angiogenesis activity in HUVEC cells assessed as reduction in cell viability by measuring survival rate at 2 nmol/L incubated for 12 hrs by MTT assay relative to control; type: functional; conditions: Homo sapiens, read-out: Survival
HUVEC [24] = assay: Anti-migratory activity against HUVEC cells assessed as wound healing rate at 0.5 nmol/L measured after 24 hrs by wound healing assay (reference value: 97 %); type: functional, Homo sapiens
HUVEC [25] = assay: Anti-migratory activity against HUVEC cells assessed as wound healing rate at 2.0 nmol/L measured after 24 hrs by wound healing assay (reference value: 97 %); type: functional, Homo sapiens
HUVEC [26] = assay: Anti-vascular activity in HUVEC cells assessed as reduction in capillary-like tubules with multi-center junctions incubated for 5 hrs by Matrigel based inverted microscopic analysis; type: functional, cell-based; conditions: Homo sapiens, dose 0.5-2 nmol/L
[27] = Toxicity in female BALB/c-nu nude mouse xenografted with human MGC-803 cells assessed as change in liver morphology at 5 mg/kg, po administrated every other day for 11 times and measured after 21 days by hematoxylin and eosin staining based analysis; type: organism-based; conditions: in vivo, 504 h, time 21 day
[28] = Toxicity in female BALB/c-nu nude mouse xenografted with human MGC-803 cells assessed as change in lung morphology at 5 mg/kg, po administrated every other day for 11 times and measured after 21 days by hematoxylin and eosin staining based analysis; type: organism-based; conditions: in vivo, 504 h, time 21 day
MGC-803 [29] = assay: Antitumor activity against human MGC-803 cells xenografted in female BALB/c-nu nude mouse assessed as reduction in Ki67 expression in tumor at 5 mg/kg, po administrated […] for 11 times and measured after 21 days by immunohistochemical analysis; type: functional, organism-based; conditions: time 21.0 day

CN(c1ccc2c(ccn2C)c1)c1nc(N2CCCC2)nc2sccc12
IC50 (SGC-7901): 2.01 nM | IC50 (Huh-7): 2.09 nM | IC50 (NCI-H1975): 2.96 nM | Activity (MGC-803 [1]): 39% | viability at 0.002 µM (MGC-803 [2]): 35% | Activity (HGC-27 [3]): Time-dependent-effect | Activity (Tubulin (Homo sapiens) [4]): Active | Activity (Tubulin (Homo sapiens) [5]): Active | Activity (Tubulin (Homo sapiens) [6]): Active | Activity (MGC-803 [7]): Dose-dependent-effect | inhibition at 0.0005 µM (MGC-803 [8]): > 90% | Activity (MGC-803 [9]): Active | Activity (HGC-27 [10]): Active | Activity (MGC-803 [11]): Dose-dependent-effect | Activity (HGC-27 [12]): Active | Activity (MGC-803 [13]): Active | Activity (MGC-803 [14]): 3.42% | Activity (MGC-803 [15]): 3.33% | Activity (MGC-803 [16]): 8.06% | Activity (HGC-27 [17]): 4.64% | Activity (HGC-27 [18]): 3.98% | Activity (HGC-27 [19]): 14.4% | Activity (HGC-27 [20]): 5.64% | Activity (HGC-27 [21]): Dose-dependent-effect | Activity (HUVEC [22]): Dose-dependent-effect | viability at 0.002 µM (HUVEC [23]): 75.6% | Activity (HUVEC [24]): 82% | Activity (HUVEC [25]): 44% | Activity (HUVEC [26]): Dose-dependent-effect | Activity [27]: Non-toxic | Activity [28]: Non-toxic | Activity (MGC-803 [29]): Active
